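Step 1: Grow cells in 96-well plates. Step 2: Expose to compound for 48 hours at 5 concentrations. Step 3: Interpolate endpoints linearly; if unreached, use highest concentration. Abbreviation: GI50, concentration required for 50% inhibition of growth. Definition used: TGI = concentration required for complete inhibition of growth.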
Legend:
Assay in all cases: inhibition of tumour cell growth, NCI panel, 48 h
OVCAR-5 ovarian = tested on: OVCAR-5 ovarian
OVCAR-3 ovarian = tested on: OVCAR-3 ovarian
NCI/ADR-RES ovarian = tested on: NCI/ADR-RES ovarian
SF-295 CNS = tested on: SF-295 CNS
HOP-62 NSCLC = tested on: HOP-62 NSCLC
A498 renal = tested on: A498 renal
MCF7 breast = tested on: MCF7 breast
KM12 colon = tested on: KM12 colon
T-47D breast = tested on: T-47D breast
HS 578T breast = tested on: HS 578T breast

CC12CCC(O)CC1CCC1C2CCC2(C)C(C3=CC(=O)OC3)CCC12 (stereo not given)
GI50 (OVCAR-5 ovarian): > 100 µM
TGI (OVCAR-5 ovarian): > 100 µM
GI50 (OVCAR-3 ovarian): > 86.6 µM
TGI (OVCAR-3 ovarian): > 100 µM
GI50 (NCI/ADR-RES ovarian): 27 µM
TGI (NCI/ADR-RES ovarian): > 100 µM
GI50 (SF-295 CNS): 10.7 µM
TGI (SF-295 CNS): 27.4 µM
GI50 (HOP-62 NSCLC): 9.53 µM
TGI (HOP-62 NSCLC): 44.9 µM
GI50 (A498 renal): 1.5 µM
TGI (A498 renal): 10.4 µM
GI50 (MCF7 breast): > 100 µM
TGI (MCF7 breast): > 100 µM
GI50 (KM12 colon): > 100 µM
TGI (KM12 colon): > 100 µM
GI50 (T-47D breast): 22.3 µM
TGI (T-47D breast): > 100 µM
GI50 (HS 578T breast): 3.48 µM
TGI (HS 578T breast): > 48.5 µM

Cc1ccc(-n2c(-c3ccc(Cl)cc3)cs/c2=N\NC(=O)COc2n[nH]c(=O)c3ccccc23)cc1
GI50 (OVCAR-5 ovarian): > 100 µM
TGI (OVCAR-5 ovarian): > 100 µM
GI50 (OVCAR-3 ovarian): > 100 µM
TGI (OVCAR-3 ovarian): > 100 µM
GI50 (NCI/ADR-RES ovarian): > 100 µM
TGI (NCI/ADR-RES ovarian): > 100 µM
GI50 (SF-295 CNS): 19.7 µM
TGI (SF-295 CNS): > 100 µM
GI50 (HOP-62 NSCLC): 51.8 µM
TGI (HOP-62 NSCLC): > 100 µM
GI50 (A498 renal): > 100 µM
TGI (A498 renal): > 100 µM
GI50 (MCF7 breast): 70.7 µM
TGI (MCF7 breast): > 100 µM
GI50 (KM12 colon): > 100 µM
TGI (KM12 colon): > 100 µM
GI50 (T-47D breast): > 100 µM
TGI (T-47D breast): > 100 µM
GI50 (HS 578T breast): 27.5 µM
TGI (HS 578T breast): > 100 µM

COC(=O)[C@]12CC[C@@H](C)[C@H](C)[C@@H]1C1=CC[C@@H]3[C@@]4(C)C=C(O)C(=O)C(C)=C4CC[C@@]3(C)[C@]1(C)CC2
GI50 (OVCAR-5 ovarian): 17.8 µM
TGI (OVCAR-5 ovarian): 38.6 µM
GI50 (OVCAR-3 ovarian): 11.6 µM
TGI (OVCAR-3 ovarian): 24.5 µM
GI50 (NCI/ADR-RES ovarian): 12.7 µM
TGI (NCI/ADR-RES ovarian): 31.7 µM
GI50 (SF-295 CNS): 15.8 µM
TGI (SF-295 CNS): 37.9 µM
GI50 (HOP-62 NSCLC): 18 µM
TGI (HOP-62 NSCLC): 35.9 µM
GI50 (A498 renal): 19.5 µM
TGI (A498 renal): 34.1 µM
GI50 (MCF7 breast): 10.8 µM
TGI (MCF7 breast): 26.9 µM
GI50 (KM12 colon): 7.72 µM
TGI (KM12 colon): 21.8 µM
GI50 (T-47D breast): 5.86 µM
TGI (T-47D breast): 30.8 µM
GI50 (HS 578T breast): 22.2 µM
TGI (HS 578T breast): 57.1 µM

COc1ccc2c(c1)C(=O)c1c-2n(CCCCl)c(=O)c2cc(N(C)C)ccc12
GI50 (OVCAR-5 ovarian): > 100 µM
TGI (OVCAR-5 ovarian): > 100 µM
GI50 (OVCAR-3 ovarian): > 100 µM
TGI (OVCAR-3 ovarian): > 100 µM
GI50 (NCI/ADR-RES ovarian): > 100 µM
TGI (NCI/ADR-RES ovarian): > 100 µM
GI50 (SF-295 CNS): > 100 µM
TGI (SF-295 CNS): > 100 µM
GI50 (HOP-62 NSCLC): 26.6 µM
TGI (HOP-62 NSCLC): 69 µM
GI50 (A498 renal): 95.6 µM
TGI (A498 renal): > 100 µM
GI50 (MCF7 breast): 28.6 µM
TGI (MCF7 breast): > 100 µM
GI50 (KM12 colon): 3.56 µM
TGI (KM12 colon): > 100 µM
GI50 (T-47D breast): 34.6 µM
TGI (T-47D breast): > 100 µM
GI50 (HS 578T breast): 26.8 µM
TGI (HS 578T breast): > 100 µM

NCC(=O)CCC(=O)O
GI50 (OVCAR-5 ovarian): > 100 µM
TGI (OVCAR-5 ovarian): > 100 µM
GI50 (OVCAR-3 ovarian): > 100 µM
TGI (OVCAR-3 ovarian): > 100 µM
GI50 (NCI/ADR-RES ovarian): > 100 µM
TGI (NCI/ADR-RES ovarian): > 100 µM
GI50 (SF-295 CNS): > 100 µM
TGI (SF-295 CNS): > 100 µM
GI50 (HOP-62 NSCLC): > 100 µM
TGI (HOP-62 NSCLC): > 100 µM
GI50 (A498 renal): > 100 µM
TGI (A498 renal): > 100 µM
GI50 (MCF7 breast): > 100 µM
TGI (MCF7 breast): > 100 µM
GI50 (KM12 colon): > 100 µM
TGI (KM12 colon): > 100 µM
GI50 (T-47D breast): > 100 µM
TGI (T-47D breast): > 100 µM
GI50 (HS 578T breast): > 100 µM
TGI (HS 578T breast): > 100 µM

CCc1nc(N)nc(N)c1-c1ccc(Cl)c(N=NN(C)C)c1
TGI (OVCAR-5 ovarian): > 100 µM
TGI (OVCAR-3 ovarian): > 91.5 µM
TGI (NCI/ADR-RES ovarian): > 100 µM
TGI (SF-295 CNS): > 100 µM
TGI (HOP-62 NSCLC): > 73.9 µM
TGI (A498 renal): > 100 µM
TGI (MCF7 breast): > 81.6 µM
TGI (KM12 colon): > 97.3 µM
TGI (T-47D breast): > 93 µM
TGI (HS 578T breast): > 100 µM

O=C1C(=O)c2c(nc3ncccn23)-c2ccccc21
GI50 (OVCAR-5 ovarian): 0.397 µM
TGI (OVCAR-5 ovarian): 0.852 µM
GI50 (OVCAR-3 ovarian): 0.204 µM
TGI (OVCAR-3 ovarian): 0.5 µM
GI50 (NCI/ADR-RES ovarian): 0.301 µM
TGI (NCI/ADR-RES ovarian): 0.962 µM
GI50 (SF-295 CNS): 0.173 µM
TGI (SF-295 CNS): 0.316 µM
GI50 (HOP-62 NSCLC): 0.296 µM
TGI (HOP-62 NSCLC): 1.05 µM
GI50 (A498 renal): 0.484 µM
TGI (A498 renal): 1.28 µM
GI50 (MCF7 breast): 0.179 µM
TGI (MCF7 breast): 0.406 µM
GI50 (KM12 colon): 0.678 µM
TGI (KM12 colon): 1.9 µM
GI50 (T-47D breast): 0.264 µM
TGI (T-47D breast): 1.02 µM
GI50 (HS 578T breast): 0.244 µM
TGI (HS 578T breast): 0.631 µM

CC(C)(CCC(C)(C)c1ccccc1)c1ccccc1
TGI (OVCAR-5 ovarian): 33.5 µM
TGI (OVCAR-3 ovarian): 31 µM
TGI (NCI/ADR-RES ovarian): 36.9 µM
TGI (SF-295 CNS): 31.6 µM
TGI (HOP-62 NSCLC): 35.4 µM
TGI (A498 renal): 33.2 µM
TGI (MCF7 breast): 32.8 µM
TGI (KM12 colon): 30.6 µM
TGI (T-47D breast): 36.6 µM
TGI (HS 578T breast): 53.4 µM
